Results published in patent US20230295234A1, “ANTIMICROBIAL PEPTIDOMIMETICS” (SPEXIS AG, priority 2020, published 2023).
Where two headings read alike, the source gives them in different places. Bridge positions count the residues as written; N and C are the ends. Square brackets hold non-standard residues; d marks the D form. Peptide text beside a SMILES is read from it. * marks the point of attachment. Pro(4R-NH2) = N[C@H]1CN[C@H](C(=O)O)C1; Gly(N-2-aminoethyl) = NCCNCC(=O)O; Hyp = O=C(O)[C@@H]1C[C@@H](O)CN1; Gly(N(CH2)3NH2) = NCCCNCC(=O)O; Pen = CC(C)(S)[C@H](N)C(=O)O; dDab = NCC[C@@H](N)C(=O)O; Nle = CCCC[C@H](N)C(=O)O; Dab = NCC[C@H](N)C(=O)O; X3 = NCCN(CCN)CC(=O)*

Columns and labels:
[1] = tested on: human red blood cells (hRBC); assay: Hemolysis of human red blood cells; assay type: cell-based; details: red cells of human, 1 h
Summary of the method: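 PBS-washed human red blood cells (20% v/v) were incubated with peptide at 200 μg/mL for 1 h at 37 °C with shaking. Supernatant OD was read at 540 nm after 8-fold dilution. Hemolysis is expressed as percent of the water control.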

[2] = tested on: Escherichia coli MCR-1 Af 45
Summary of the method: (§1)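 Activity is measured against peptides serially diluted two-fold in water with 0.002% final Polysorbate 80. The cells are in cation-adjusted MHII broth at roughly 5×10^5 CFU/mL, prepared from a 0.5 McFarland suspension in 0.85% NaCl.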

[3] = tested on: Escherichia coli ATCC 25922; details: ATCC 25922
Summary of the method: as §1

[4] = tested on: Klebsiella pneumoniae SSI3010; details: SSI3010
Summary of the method: as §1

[5] = Mueller-Hinton broth II, 18-20 hours at 35° C.

| Escherichia coli MCR-1 Af 45 MIC ([2]; MCR-1 Af 45) [µg/mL] | Escherichia coli ATCC 25922 MIC [3] [µg/mL] | Klebsiella pneumoniae SSI3010 MIC [4] [µg/mL] | Structure (SMILES) | Hemolysis at 0.2 g/L [1] [%] | Escherichia coli MCR-1 Af 45 MIC [2, 5] [µg/mL] |
| --- | --- | --- | --- | --- | --- |
| ≤0.03125 | ≤0.03125 | 0.125 | CC[C@H](C)[C@H](NC(=O)[C@@H]1C[C@@H](O)CN1C(=O)[C@@H](NC(=O)CN(CCN)C(=O)CNCCCN)C(C)C)C(=O)N[C@H](C(=O)N[C@@H](Cc1ccc(O)cc1)C(=O)N[C@@H]1C(=O)N[C@@H](CC(N)=O)C(=O)N[C@@H](CCCNC(=N)N)C(=O)N[C@@H](CCN)C(=O)N[C@@H]([C@@H](C)O)C(=O)N[C@H](CCN)C(=O)N[C@@H](CCCCN)C(=O)N[C@H](C(=O)N[C@@H](CCN)C(=O)N[C@@H](CCCNC(=N)N)C(=O)N[C@@H](Cc2ccc(O)cc2)C(=O)O)CSSC1(C)C)[C@@H](C)O [Example 55, Norn-Ndab-Val-Hyp-Ile-Thr-Tyr-Pen-Asn-Arg-Dab-Thr-^DDab-Lys-Cys-Dab-Arg-Tyr] (H-[Gly(N(CH2)3NH2)][Gly(N-2-aminoethyl)]V[Hyp]ITY[Pen]NR[Dab]T[dDab]KC[Dab]RY-OH; disulfide 8-15) | 0 | – |
| 0.0625 | 0.25 | 0.25 | CCCC[C@H](NC(=O)[C@H](CCCNC(=N)N)NC(=O)[C@H](CCN)NC(=O)[C@@H]1CSSC(C)(C)[C@H](NC(=O)[C@H](Cc2ccc(O)cc2)NC(=O)[C@@H](NC(=O)[C@@H](NC(=O)CN(CCN)C(=O)[C@@H](NC(=O)CNCCN)C(C)C)[C@@H](C)CC)[C@@H](C)O)C(=O)N[C@@H](CC(N)=O)C(=O)N[C@@H](CCCNC(=N)N)C(=O)N[C@@H](CCN)C(=O)N[C@@H]([C@@H](C)O)C(=O)N[C@H](CCN)C(=O)N[C@@H](CCCCN)C(=O)N1)C(=O)O [Example 12, Ndab-Val-Ndab-Ile-Thr-Tyr-Pen-Asn-Arg-Dab-Thr-^DDab-Lys-Cys-Dab-Arg-Nle] (H-[Gly(N-2-aminoethyl)]V[Gly(N-2-aminoethyl)]ITY[Pen]NR[Dab]T[dDab]KC[Dab]R[Nle]-OH; disulfide 7-14) | 0 | – |
| 0.0625 | 0.125 | 0.25 | CCCC[C@H](NC(=O)[C@H](CCCNC(=N)N)NC(=O)[C@H](CCC(N)=O)NC(=O)[C@@H]1CSSC(C)(C)[C@H](NC(=O)[C@H](Cc2ccc(O)cc2)NC(=O)[C@@H](NC(=O)[C@@H](NC(=O)[C@@H]2C[C@@H](N)CN2C(=O)[C@@H](NC(=O)CN(CCN)CCN)C(C)C)[C@@H](C)CC)[C@@H](C)CC)C(=O)N[C@@H](CC(N)=O)C(=O)N[C@@H](CCCNC(=N)N)C(=O)N[C@@H](CCN)C(=O)N[C@@H]([C@@H](C)O)C(=O)N[C@H](CCN)C(=O)N[C@@H](CCCCN)C(=O)N1)C(=O)O [Example 40, Bis(2aminoethyl)Gly-Val-Pro((4R)NH2)-Ile-Ile-Tyr-Pen-Asn-Arg-Dab-Thr-DDab-Lys-Cys-Gln-Arg-Nle] (X3-V[Pro(4R-NH2)]IIY[Pen]NR[Dab]T[dDab]KCQR[Nle]-OH; disulfide 6-13) | 0 | – |
| 0.125 | 0.25 | 0.25 | CC[C@H](C)[C@H](NC(=O)CN(CCN)C(=O)[C@@H](NC(=O)[C@@H]1C[C@@H](O)CN1C(=O)[C@H](CCCCN)NC(=O)CNCCN)C(C)C)C(=O)N[C@H](C(=O)N[C@@H](Cc1ccc(O)cc1)C(=O)N[C@@H]1C(=O)N[C@@H](CC(N)=O)C(=O)N[C@@H](CCCNC(=N)N)C(=O)N[C@@H](CCN)C(=O)N[C@@H]([C@@H](C)O)C(=O)N[C@H](CCN)C(=O)N[C@@H](CCCCN)C(=O)N[C@H](C(=O)N[C@@H](Cc2ccc(O)cc2)C(=O)N[C@@H](CCCNC(=N)N)C(=O)N[C@@H](Cc2ccc(O)cc2)C(=O)O)CSSC1(C)C)[C@@H](C)O [Example 130, Ndab-Lys-Hyp-Val-Ndab-Ile-Thr-Tyr-Pen-Asn-Arg-Dab-Thr-^DDab-Lys-Cys-Tyr-Arg-Tyr] (H-[Gly(N-2-aminoethyl)]K[Hyp]V[Gly(N-2-aminoethyl)]ITY[Pen]NR[Dab]T[dDab]KCYRY-OH; disulfide 9-16) | 0 | – |

More lines, now with the values behind:

| Structure (SMILES) | Escherichia coli MCR-1 Af 45 MIC ([2]; MCR-1 Af 45) [µg/mL] | Escherichia coli ATCC 25922 MIC [3] [µg/mL] | Klebsiella pneumoniae SSI3010 MIC [4] [µg/mL] | Hemolysis at 0.2 g/L [1] [%] | Escherichia coli MCR-1 Af 45 MIC [2, 5] [µg/mL] |
| --- | --- | --- | --- | --- | --- |
| CC[C@H](C)[C@H](NC(=O)[C@@H]1C[C@@H](O)CN1C(=O)[C@@H](N)C(C)C)C(=O)N[C@@H](CCCNC(=N)N)C(=O)N[C@@H](Cc1ccc(O)cc1)C(=O)N[C@@H]1C(=O)N[C@@H](CC(N)=O)C(=O)N[C@@H](CCCNC(=N)N)C(=O)N[C@@H](CCN)C(=O)N[C@@H]([C@@H](C)O)C(=O)N[C@H](CCN)C(=O)N[C@@H](CCCCN)C(=O)N[C@H](C(=O)N[C@@H](CCN)C(=O)N[C@@H](CCCNC(=N)N)C(=O)N[C@@H](Cc2ccc(O)cc2)C(=O)O)CSSC1(C)C [Example 184] (HELM PEPTIDE1{V.[Hyp].I.R.Y.[Pen].N.R.[Dab].T.[NCC[C@@H](N[*:1])C(=O)[*:2]].K.C.[Dab].R.Y}$PEPTIDE1,PEPTIDE1,6:R3-13:R3$$$V2.0) | – | 0.25 | 0.25 | 0 | 0.0625 |
| CCCC[C@H](NC(=O)[C@H](CCCNC(=N)N)NC(=O)[C@H](CCN)NC(=O)[C@@H]1CSSC[C@H](NC(=O)[C@H](Cc2ccc(O)cc2)NC(=O)[C@H](CCCNC(=N)N)NC(=O)[C@@H](NC(=O)[C@@H]2CCCN2C(=O)[C@@H](NC(=O)[C@@H]2CCCN2C(=O)[C@H](CCCNC(=N)N)NC(=O)[C@@H](N)CCCCN)C(C)C)[C@@H](C)CC)C(=O)N[C@@H](CC(N)=O)C(=O)N[C@@H](CCCNC(=N)N)C(=O)N[C@@H](CCN)C(=O)N[C@@H]([C@@H](C)O)C(=O)N[C@H](CCN)C(=O)N[C@@H](CCCCN)C(=O)N1)C(=O)O [Example 72] (HELM PEPTIDE1{K.R.P.V.P.I.R.Y.C.N.R.[Dab].T.[NCC[C@@H](N[*:1])C(=O)[*:2]].K.C.[Dab].R.[Nle]}$PEPTIDE1,PEPTIDE1,9:R3-16:R3$$$V2.0) | 0.0625 | ≤0.0625 | ≤0.25 | 0 | – |
| CCCC[C@H](NC(=O)[C@H](CCCNC(=N)N)NC(=O)[C@H](CCN)NC(=O)[C@@H]1CSSC[C@H](NC(=O)[C@H](Cc2ccc(O)cc2)NC(=O)[C@@H](NC(=O)[C@@H](NC(=O)[C@@H]2CCCN2C(=O)[C@@H](NC(=O)[C@@H](CCCCN)NC(=O)[C@H](CCCCN)NC(=O)[C@H](N)C(C)C)C(C)C)[C@@H](C)CC)[C@@H](C)CC)C(=O)N[C@@H](CC(N)=O)C(=O)N[C@@H](CCCNC(=N)N)C(=O)N[C@@H](CCCNC(=N)N)C(=O)N[C@@H]([C@@H](C)O)C(=O)N[C@H](CCN)C(=O)N[C@@H](CCCCN)C(=O)N1)C(=O)O [Example 76] (HELM PEPTIDE1{[dV].K.[dK].V.P.I.I.Y.C.N.R.R.T.[NCC[C@@H](N[*:1])C(=O)[*:2]].K.C.[Dab].R.[Nle]}$PEPTIDE1,PEPTIDE1,9:R3-16:R3$$$V2.0) | ≤0.03125 | 0.0625 | 0.125 | 0 | – |
| CC[C@H](C)[C@H](NC(=O)[C@@H]1C[C@@H](O)CN1C(=O)[C@@H](N)C(C)C)C(=O)N[C@@H](CC(N)=O)C(=O)N[C@@H](Cc1ccc(O)cc1)C(=O)N[C@@H]1C(=O)N[C@@H](CC(N)=O)C(=O)N[C@@H](CCCNC(=N)N)C(=O)N[C@@H](CCN)C(=O)N[C@@H]([C@@H](C)O)C(=O)N[C@H](CCN)C(=O)N[C@@H](CCCCN)C(=O)N[C@H](C(=O)N[C@@H](CCN)C(=O)N[C@@H](CCCNC(=N)N)C(=O)N[C@@H](Cc2ccc(O)cc2)C(=O)O)CSSC1(C)C [Example 157] (HELM PEPTIDE1{V.[Hyp].I.N.Y.[Pen].N.R.[Dab].T.[NCC[C@@H](N[*:1])C(=O)[*:2]].K.C.[Dab].R.Y}$PEPTIDE1,PEPTIDE1,6:R3-13:R3$$$V2.0) | – | 0.125 | 0.5 | 0 | 0.125 |
| CC[C@H](C)[C@H](NC(=O)[C@@H]1C[C@@H](N)CN1C(=O)[C@@H](NC(=O)[C@@H]1C[C@@H](O)CN1C(=O)[C@@H](N)CCCCN)C(C)C)C(=O)N[C@H](C(=O)N[C@@H](Cc1ccc(O)cc1)C(=O)N[C@@H]1C(=O)N[C@@H](CC(N)=O)C(=O)N[C@@H](CCCNC(=N)N)C(=O)N[C@@H](CCN)C(=O)N[C@@H]([C@@H](C)O)C(=O)N[C@H](CCN)C(=O)N[C@@H](CCCCN)C(=O)N[C@H](C(=O)N[C@@H](CCN)C(=O)N[C@@H](CCCNC(=N)N)C(=O)N[C@@H](Cc2ccc(O)cc2)C(=O)O)CSSC1(C)C)[C@@H](C)O [Example 43, Lys-Hyp-Val-Pro((4R)NH2)-Ile-Thr-Tyr-Pen-Asn-Arg-Dab-Thr-^DDab-Lys-Cys-Dab-Arg-Tyr] (HELM PEPTIDE1{K.[Hyp].V.[N[C@@H]1C[C@@H](C(=O)[*:2])N([*:1])C1].I.T.Y.[Pen].N.R.[Dab].T.[NCC[C@@H](N[*:1])C(=O)[*:2]].K.C.[Dab].R.Y}$PEPTIDE1,PEPTIDE1,8:R3-15:R3$$$V2.0) | 0.125 | 0.125 | 0.125 | 0 | – |
